Assay results published in article PMC2578980 (The Yale Journal of Biology and Medicine, 1998).

What was measured:
human CCK-BR [1] = target: T1, human CCK-BR (Homo sapiens, UniProt P32239); test: Inositol phosphate accumulation; format: cell-based; conditions: for effect on inositol phosphate production (intrinsic activity): high concentrations of non-peptide ligands
T1 sequence (P32239 1-447): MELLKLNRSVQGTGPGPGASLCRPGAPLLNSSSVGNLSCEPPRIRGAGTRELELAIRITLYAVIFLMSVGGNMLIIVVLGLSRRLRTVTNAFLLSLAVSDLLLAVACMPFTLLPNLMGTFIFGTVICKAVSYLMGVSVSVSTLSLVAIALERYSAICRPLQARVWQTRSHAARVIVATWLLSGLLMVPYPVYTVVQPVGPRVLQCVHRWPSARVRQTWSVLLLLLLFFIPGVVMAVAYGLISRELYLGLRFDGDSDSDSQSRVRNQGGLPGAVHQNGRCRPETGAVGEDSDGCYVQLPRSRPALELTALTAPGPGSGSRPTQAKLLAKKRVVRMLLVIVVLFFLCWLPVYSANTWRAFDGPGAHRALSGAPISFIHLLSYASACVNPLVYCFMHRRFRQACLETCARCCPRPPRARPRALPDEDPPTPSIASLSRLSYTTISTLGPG

gastric acid secretion = conditions: cited from earlier work
human CCK-BR [2] = target: T1, human CCK-BR
human CCK-BR [3] = target: T1, human CCK-BR; conditions: human CCK-BR expressed in CHO instead of COS-7 cells; cited from earlier work

SMILES: Cc1cccc(NC(=O)N[C@@H]2N=C(c3ccccc3)c3ccccc3N(C)C2=O)c1 [L-365,260]
- effect on inositol phosphate production (intrinsic activity) (human CCK-BR [1]): little, if any, effect

SMILES: C[C@](Cc1c[nH]c2ccccc12)(NC(=O)OC1C2CC3CC(C2)CC1C3)C(=O)NC[C@H](NC(=O)/C=C/C(=O)O)c1ccccc1 (stereo partly shown) [PD 136,450]
- inositol phosphate formation, percent of the CCK-8 induced maximum (human CCK-BR [1]): 43%
- intrinsic activity in the rat (gastric acid secretion): no appreciable intrinsic activity

SMILES: Cc1cccc(NC(=O)N[C@@H]2N=C(c3ccccc3)c3ccccc3N(CC(=O)c3ccccc3C)C2=O)c1 [YM022, (R)-1-[2,3-dihydro-1-(2'-methylphenacyl)-2-oxo-5-phenyl-1H-1,4-benzodiazepin-3-yl]-3-(3-methylphenyl)urea]
- effect on inositol phosphate production (intrinsic activity) (human CCK-BR [1]): little, if any, effect
- blockade of CCK-8 induced inositol phosphate formation (human CCK-BR [2]): completely blocks

SMILES: CC1(C)[C@H]2CC[C@@]1(C)[C@H](OC(=O)N[C@](C)(Cc1c[nH]c3ccccc13)C(=O)NC[C@H](NC(=O)CCC(=O)O)c1ccccc1)C2 [PD 135,158]
- inositol phosphate formation, percent of the CCK-8 induced maximum (human CCK-BR [1]): 23%
- functional classification in CHO cells (human CCK-BR [3]): "true" antagonist
